Assay results as given in patent US20240287065A1, “COMPOUND AS CDK KINASE INHIBITOR AND USE THEREOF” (TYK MEDICINES (ZHENGZHOU) , INC., priority 2021, published 2024).

Each molecule was assayed on HCC1806 cells (assay: Cell proliferation inhibition assay (MTT, 7 days)). Details: Homo sapiens, HCC1806, 168 h, HCC1086 [sic], 7 days incubation.
Assay type: cell-based
Method: (§1) MCF7, T47D, OVCAR3 and HCC1806 cells were inoculated in 96-well plates at 3000, 3000, 2500, and 2000 cells/well, respectively, and cultured overnight at 37° C., 5% C02 incubator.
(§2) 1. […] Then 2.5 μl of the stock solution was dissolved in 497.5 μl of DMSO-free medium, and then a 3-fold serial gradient dilution was performed with 0.1% DMSO medium for a total of 9 concentrations, and the concentrations of the compounds after dilution were as follows: • 10000 nM, 3333.33 nM, 1111.11 nM, 370.34 nM, 123.45 nM, 41.15 nM, 13.72 nM, 4.57 nM, and 1.52 nM. • b) After fully mixing, 20 μL of compound solutions were added into cell culture plates containing 80 μL of cells respectively, with 4 replicate wells for each concentration. • c) The cells were transferred to an incubator and incubated for 7 days, and exchanged with fresh culture medium containing the same concentration of compounds when incubated to day 4. 2. MTT assay • a) The cell culture plate was taken out and 10 μL of 5 mg/ml MTT was added to the hood. • b) The cell culture plate was put back into the incubator and continued to incubate for 3 hours. • c) The cell culture plate was taken out to remove the culture medium, and 100 μL of isopropanol (0.4 mMHCl, 0.4% NP40) was added to the plate, and the plate was shaken on a shaker at room temperature for 30 minutes and read at 570 nm. 3. Data analysis
(§3) The survival rate (% Cell Survival) was calculated using the following equation:
(§4) % Cell Survival=100%×(OD_Sample−OD_LCave)/(OD_HC−OD_LCave) • OD_HC: 0.1‰ cell readings of DMSO control • OD_Sample: cell readings of compound addition • OD_LC: readings of blank medium • Analyed by Prizm: Dose-response-Inhibition Log(inhibitor) vs response (three parameters for the best fit)
(§5) IC50 (nM) values were calculated by concentration-response curve fitting.

Which IC50 does the source give for C[C@@]1(O)CCC[C@H]1n1c(=O)c(OC(F)F)cc2cnc(NC3CCN(S(=O)(=O)C4CCC4)CC3)nc21 [Example 42] here?
The IC50 was 50 to 5200 nM.

For C[C@@]1(O)CCC[C@H]1n1c(=O)c(OC(F)F)cc2cnc(NC3CCN(S(=O)(=O)c4ccc(Cl)cc4)CC3)nc21 [Example 58], which IC50 is on record?
Its IC50 is 200 to 51000 nM.

With C[C@@]1(O)CCC[C@H]1n1c(=O)c(OC(F)F)cc2cnc(NC3CCN(S(=O)(=O)N4CCOCC4)CC3)nc21 [Example 66] as the molecule, how does the IC50 read?
Its IC50 is 50 to 5200 nM.

Which IC50 does the source give for C[C@@]1(O)CCC[C@H]1n1c(=O)c(OC(F)F)cc2cnc(NC3CCN(S(=O)(=O)CC#N)CC3)nc21 [Example 38] here?
Its IC50 is 50 to 5200 nM.

For C[C@@]1(O)CCC[C@H]1n1c(=O)c(OC(F)F)cc2cnc(NC3CCN(S(=O)(=O)CCC(F)(F)F)CC3)nc21 [Example 40], which IC50 is on record?
Its IC50 is 50 to 5200 nM.

How did the IC50 turn out when COc1ncccc1S(=O)(=O)N1CCC(Nc2ncc3cc(OC(F)F)c(=O)n([C@@H]4CCC[C@@]4(C)O)c3n2)CC1 [Example 37] was run?
Its IC50 is ≤ 50 nM.

How did the IC50 turn out when C[C@@]1(O)CCC[C@H]1n1c(=O)c(OC(F)F)cc2cnc(NC3CCN(S(=O)(=O)c4cccc(Cl)c4)CC3)nc21 [Example 59] was run?
The IC50 was 50 to 5200 nM.

For CCOc1ccc(S(=O)(=O)N2CCC(Nc3ncc4cc(OC(F)F)c(=O)n([C@@H]5CCC[C@@]5(C)O)c4n3)CC2)cc1 [Example 34], which IC50 is on record?
Its IC50 is ≤ 50 nM.

These molecules were tested on MCF7 cells (assay: Cell proliferation inhibition assay (MTT, 7 days)). Details: Homo sapiens, 168 h, 7 days incubation.
Assay type: cell-based
Method: as §1, §2, §3, §4, §5

C[C@@]1(O)CCC[C@H]1n1c(=O)c(OC(F)F)cc2cnc(NC3CCN(S(=O)(=O)C4CCC4)CC3)nc21 [Example 42] was tested. Which IC50 did it give?
Its IC50 is ≤ 50 nM.

For C[C@@]1(O)CCC[C@H]1n1c(=O)c(OC(F)F)cc2cnc(NC3CCN(S(=O)(=O)c4ccc(Cl)cc4)CC3)nc21 [Example 58], which IC50 is on record?
Its IC50 is 50 to 5200 nM.

With C[C@@]1(O)CCC[C@H]1n1c(=O)c(OC(F)F)cc2cnc(NC3CCN(S(=O)(=O)CC#N)CC3)nc21 [Example 38] as the molecule, how does the IC50 read?
Its IC50 is ≤ 50 nM.

Which IC50 does the source give for C[C@@]1(O)CCC[C@H]1n1c(=O)c(OC(F)F)cc2cnc(NC3CCN(S(=O)(=O)c4cccc(Cl)c4)CC3)nc21 [Example 59] here?
Its IC50 is 50 to 5200 nM.

CCOc1ccc(S(=O)(=O)N2CCC(Nc3ncc4cc(OC(F)F)c(=O)n([C@@H]5CCC[C@@]5(C)O)c4n3)CC2)cc1 [Example 34] was tested. Which IC50 did it give?
The IC50 was ≤ 50 nM.

The molecules below were run on OVCAR3 cells (assay: Cell proliferation inhibition assay (MTT, 7 days)). Details: Homo sapiens, OVCAR-3, 168 h, 7 days incubation.
Assay type: cell-based
Method: as §1, §2, §3, §4, §5

With C[C@@]1(O)CCC[C@H]1n1c(=O)c(OC(F)F)cc2cnc(NC3CCN(S(=O)(=O)C4CCC4)CC3)nc21 [Example 42] as the molecule, how does the IC50 read?
Its IC50 is ≤ 50 nM.

C[C@@]1(O)CCC[C@H]1n1c(=O)c(OC(F)F)cc2cnc(NC3CCN(S(=O)(=O)c4ccc(Cl)cc4)CC3)nc21 [Example 58] was tested. Which IC50 did it give?
Its IC50 is 50 to 5200 nM.

For C[C@@]1(O)CCC[C@H]1n1c(=O)c(OC(F)F)cc2cnc(NC3CCN(S(=O)(=O)N4CCOCC4)CC3)nc21 [Example 66], which IC50 is on record?
The IC50 was ≤ 50 nM.

Which IC50 does the source give for C[C@@]1(O)CCC[C@H]1n1c(=O)c(OC(F)F)cc2cnc(NC3CCN(S(=O)(=O)CCC(F)(F)F)CC3)nc21 [Example 40] here?
The IC50 was ≤ 50 nM.

COc1ncccc1S(=O)(=O)N1CCC(Nc2ncc3cc(OC(F)F)c(=O)n([C@@H]4CCC[C@@]4(C)O)c3n2)CC1 [Example 37] was tested. Which IC50 did it give?
The IC50 was ≤ 50 nM.

With C[C@@]1(O)CCC[C@H]1n1c(=O)c(OC(F)F)cc2cnc(NC3CCN(S(=O)(=O)c4cccc(Cl)c4)CC3)nc21 [Example 59] as the molecule, how does the IC50 read?
The IC50 was 50 to 5200 nM.

With CCOc1ccc(S(=O)(=O)N2CCC(Nc3ncc4cc(OC(F)F)c(=O)n([C@@H]5CCC[C@@]5(C)O)c4n3)CC2)cc1 [Example 34] as the molecule, how does the IC50 read?
Its IC50 is ≤ 50 nM.

These molecules were tested on T47D cells (assay: Cell proliferation inhibition assay (MTT, 7 days)). Details: Homo sapiens, 168 h, 7 days incubation.
Assay type: cell-based
Method: as §1, §2, §3, §4, §5

For C[C@@]1(O)CCC[C@H]1n1c(=O)c(OC(F)F)cc2cnc(NC3CCN(S(=O)(=O)C4CCC4)CC3)nc21 [Example 42], which IC50 is on record?
Its IC50 is ≤ 50 nM.

Which IC50 does the source give for C[C@@]1(O)CCC[C@H]1n1c(=O)c(OC(F)F)cc2cnc(NC3CCN(S(=O)(=O)c4ccc(Cl)cc4)CC3)nc21 [Example 58] here?
The IC50 was 50 to 5200 nM.

For C[C@@]1(O)CCC[C@H]1n1c(=O)c(OC(F)F)cc2cnc(NC3CCN(S(=O)(=O)N4CCOCC4)CC3)nc21 [Example 66], which IC50 is on record?
Its IC50 is 50 to 5200 nM.

Which IC50 does the source give for C[C@@]1(O)CCC[C@H]1n1c(=O)c(OC(F)F)cc2cnc(NC3CCN(S(=O)(=O)CCC(F)(F)F)CC3)nc21 [Example 40] here?
Its IC50 is 50 to 5200 nM.

COc1ncccc1S(=O)(=O)N1CCC(Nc2ncc3cc(OC(F)F)c(=O)n([C@@H]4CCC[C@@]4(C)O)c3n2)CC1 [Example 37] was tested. Which IC50 did it give?
The IC50 was ≤ 50 nM.

With C[C@@]1(O)CCC[C@H]1n1c(=O)c(OC(F)F)cc2cnc(NC3CCN(S(=O)(=O)c4cccc(Cl)c4)CC3)nc21 [Example 59] as the molecule, how does the IC50 read?
Its IC50 is 50 to 5200 nM.

CCOc1ccc(S(=O)(=O)N2CCC(Nc3ncc4cc(OC(F)F)c(=O)n([C@@H]5CCC[C@@]5(C)O)c4n3)CC2)cc1 [Example 34] was tested. Which IC50 did it give?
Its IC50 is ≤ 50 nM.

These molecules were tested against CDK6/CycD1 (Homo sapiens, UniProt Q00534) (assay: Enzyme activity test). Details: not given.
Assay type: biochemical
Method: (§6) • 1. The test compounds and pabocinib were configured into a […] solution of DMSO; • 2. 20 nL of stock solution was transferred to a 384-well plate using Echo550. DMSO was used as a blank control.
(§7) • 1. according to the following table to prepare 1.3X enzyme solution containing enzyme, substrate and cofactor; • 2. 15 μL of 1.3X enzyme solution was added to each well and the mixture was incubated for 30 min at room temperature; • 3. 5 μL of ATP solution was added to initiate the reaction. The final volume of each well was 20 μL; • 4. After incubation for 150 min at room temperature, 75 μL of termination buffer solution was added to terminate the experiment; • 5. The samples were analyzed using EZ reader.
(§8) The % inhibition was calculated using the following equation
(§9) The one treated with DMSO is the positive control (PC)
(§10) The one without enzyme is the negative control (NC)
(§11) % Inhibition=100-100*((CRPC−CRsample)/(CRPC−CRNC))

Chain of CDK6/CycD1 (Q00534 whole entry, species assumed): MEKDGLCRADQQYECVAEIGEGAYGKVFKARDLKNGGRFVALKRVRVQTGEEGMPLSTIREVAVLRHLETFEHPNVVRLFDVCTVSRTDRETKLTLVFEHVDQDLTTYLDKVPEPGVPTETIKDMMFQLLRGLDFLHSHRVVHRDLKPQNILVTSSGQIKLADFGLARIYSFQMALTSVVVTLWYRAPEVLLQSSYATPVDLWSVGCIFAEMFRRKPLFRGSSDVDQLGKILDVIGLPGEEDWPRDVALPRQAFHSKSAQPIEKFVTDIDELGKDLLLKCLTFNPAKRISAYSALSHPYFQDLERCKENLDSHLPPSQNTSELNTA
Chain of CDK6/CycD1 (P24385 whole entry partner, species assumed): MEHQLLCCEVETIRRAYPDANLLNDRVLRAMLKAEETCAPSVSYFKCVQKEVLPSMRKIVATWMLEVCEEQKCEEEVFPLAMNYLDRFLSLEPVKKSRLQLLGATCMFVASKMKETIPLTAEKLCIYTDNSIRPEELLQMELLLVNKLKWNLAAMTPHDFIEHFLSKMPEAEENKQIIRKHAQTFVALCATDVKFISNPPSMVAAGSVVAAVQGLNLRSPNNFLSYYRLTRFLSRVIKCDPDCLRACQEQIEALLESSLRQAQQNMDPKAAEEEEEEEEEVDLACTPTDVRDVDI

Which IC50 does the source give for C[C@@]1(O)CCC[C@H]1n1c(=O)c(OC(F)F)cc2cnc(NC3CCN(S(=O)(=O)N4CCOCC4)CC3)nc21 [Example 66] here?
Its IC50 is < 10 nM.

The molecules below were run against CDK2/CycE1 (Homo sapiens, UniProt P24941) (assay: Enzyme activity test). Details: not given.
Assay type: biochemical
Method: as §6, §7, §8, §9, §10, §11

How did the IC50 turn out when C[C@@]1(O)CCC[C@H]1n1c(=O)c(OC(F)F)cc2cnc(NC3CCN(S(=O)(=O)C4CCC4)CC3)nc21 [Example 42] was run?
The IC50 was < 10 nM.

Which IC50 does the source give for C[C@@]1(O)CCC[C@H]1n1c(=O)c(OC(F)F)cc2cnc(NC3CCN(S(=O)(=O)N4CCOCC4)CC3)nc21 [Example 66] here?
The IC50 was < 10 nM.

Which IC50 does the source give for C[C@@]1(O)CCC[C@H]1n1c(=O)c(OC(F)F)cc2cnc(NC3CCN(S(=O)(=O)CCC(F)(F)F)CC3)nc21 [Example 40] here?
Its IC50 is < 10 nM.

Which IC50 does the source give for COc1ncccc1S(=O)(=O)N1CCC(Nc2ncc3cc(OC(F)F)c(=O)n([C@@H]4CCC[C@@]4(C)O)c3n2)CC1 [Example 37] here?
Its IC50 is < 10 nM.

The molecules below were run against CDK4/CycD3 (Homo sapiens, UniProt P11802) (assay: Enzyme activity test). Details: not given.
Assay type: biochemical
Method: as §6, §7, §8, §9, §10, §11

Chain of CDK4/CycD3 (P11802 whole entry, species assumed): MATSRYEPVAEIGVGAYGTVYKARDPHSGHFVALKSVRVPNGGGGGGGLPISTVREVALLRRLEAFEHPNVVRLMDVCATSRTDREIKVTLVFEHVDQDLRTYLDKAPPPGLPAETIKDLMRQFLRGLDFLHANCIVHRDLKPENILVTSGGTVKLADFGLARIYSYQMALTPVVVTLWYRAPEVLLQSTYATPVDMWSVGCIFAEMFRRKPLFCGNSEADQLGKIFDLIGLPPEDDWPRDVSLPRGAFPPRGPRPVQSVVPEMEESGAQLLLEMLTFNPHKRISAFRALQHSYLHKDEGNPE
Chain of CDK4/CycD3 (P30281 whole entry partner, species assumed): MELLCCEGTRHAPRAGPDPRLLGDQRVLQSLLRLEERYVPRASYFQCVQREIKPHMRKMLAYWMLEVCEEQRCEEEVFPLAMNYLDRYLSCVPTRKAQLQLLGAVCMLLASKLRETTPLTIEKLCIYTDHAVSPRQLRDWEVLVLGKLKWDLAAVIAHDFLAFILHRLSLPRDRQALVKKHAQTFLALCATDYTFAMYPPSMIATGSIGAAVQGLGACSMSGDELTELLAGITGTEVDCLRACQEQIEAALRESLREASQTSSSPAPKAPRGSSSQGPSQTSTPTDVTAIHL

Which IC50 does the source give for C[C@@]1(O)CCC[C@H]1n1c(=O)c(OC(F)F)cc2cnc(NC3CCN(S(=O)(=O)C4CCC4)CC3)nc21 [Example 42] here?
The IC50 was < 10 nM.

Which IC50 does the source give for C[C@@]1(O)CCC[C@H]1n1c(=O)c(OC(F)F)cc2cnc(NC3CCN(S(=O)(=O)N4CCOCC4)CC3)nc21 [Example 66] here?
Its IC50 is 10 to 100 nM.

With C[C@@]1(O)CCC[C@H]1n1c(=O)c(OC(F)F)cc2cnc(NC3CCN(S(=O)(=O)CCC(F)(F)F)CC3)nc21 [Example 40] as the molecule, how does the IC50 read?
The IC50 was < 10 nM.

Which IC50 does the source give for COc1ncccc1S(=O)(=O)N1CCC(Nc2ncc3cc(OC(F)F)c(=O)n([C@@H]4CCC[C@@]4(C)O)c3n2)CC1 [Example 37] here?
The IC50 was < 10 nM.
